These results are taken from ChEMBL document CHEMBL3638956, “Tetrahydro-pyrazolo[1,5-a]pyrido-pyrimidines as antagonists of serotonin 5-HT6 receptors, methods for the production and use thereof” (2013).

In the assay the target is 5-hydroxytryptamine receptor 6 (Homo sapiens, UniProt P50406). The assay can be described thus: Competitive Binding Assay: Activity test of serotonin 5-HT6 receptor antagonists of the general formulas 1, 2 in the setting of competitive binding to serotonin 5-HT6 receptors.
Sequence of 5-hydroxytryptamine receptor 6 (P50406 whole entry): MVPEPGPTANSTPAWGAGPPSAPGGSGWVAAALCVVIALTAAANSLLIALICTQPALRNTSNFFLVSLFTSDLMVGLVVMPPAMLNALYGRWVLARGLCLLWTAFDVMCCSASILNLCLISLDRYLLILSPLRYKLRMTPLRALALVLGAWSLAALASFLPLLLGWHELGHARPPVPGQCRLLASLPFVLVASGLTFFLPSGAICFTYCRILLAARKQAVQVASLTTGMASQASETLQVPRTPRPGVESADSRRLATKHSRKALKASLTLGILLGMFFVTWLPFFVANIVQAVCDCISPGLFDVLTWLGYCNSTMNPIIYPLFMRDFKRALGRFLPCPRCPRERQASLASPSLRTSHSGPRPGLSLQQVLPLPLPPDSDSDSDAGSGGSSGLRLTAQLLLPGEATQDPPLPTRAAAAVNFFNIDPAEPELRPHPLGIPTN
For `CSc1nn2c3c(c(C)nc2c1S(=O)(=O)c1ccccc1)CNCC3`, the half-maximal inhibitory concentration (IC50) (usually the midpoint of a concentration-inhibition curve) amounted to 16.6 nM; the Ki (as a rule, the dissociation constant of the complex between target and ligand, obtained from inhibition or displacement) worked out at 7.7 nM.
On the same counts, the results for `CSc1nn2c3c(cnc2c1S(=O)(=O)c1ccccc1)CN(C)CC3` are 76.9 nM and 35.7 nM.
`Cc1nn2c3c(cnc2c1S(=O)(=O)c1ccccc1)CN(C)CC3` came in with an IC50 of 13 nM. In other words, the double-digit nanomolar range.
As to `Cc1nn2c3c(cnc2c1S(=O)(=O)c1ccccc1)CNCC3`, the Ki came to 2.14 nM.
